The values below come from patent publication US9133449B2, “Mutant pyrrolysyl-tRNA synthetase, and method for production of protein having non-natural amino acid integrated therein by using the same” (priority 2007, dated 2015).

“Also recorded” adds a separate entry of the source.

The target of test [1] is M. mazei PylRS (wild-type) (Methanosarcina mazei, UniProt Q8PWY1). In kind it is biochemical. The conditions noted are these: 37 degrees Celsius 1 h; 0.5 M Lys; 100 mM Ac-Lys; 1 mM Boc-Lys; 1 mM Aloc-Lys; 10 mM Nic-Lys; 7 mM Nma-Lys; 3.5 mM Z-Lys; 1 mM pyrrolysine.
For test [2], the system named is GST gene with amber codon (TAG) at the 25th from N terminus, E. coli BL21 (DE3). In kind it is cell-based. The conditions noted are these: for expression of 28-kDa GST protein: mutant PylRS (Y384F) and tRNA^Pyl, 4 mM amino acid; for incorporation into a protein with wild-type PylRS: E. coli cells. The source says:
In order to confirm whether amber suppression (amber mutation suppression) occurs in E. coli cells, the glutathione S-transferase (GST) gene whose tyrosine codon at the 25th from N terminus was mutated to the amber codon (TAG) was cloned into a pET system plasmid. On the other hand, the wild-type and a variety of mutant PylRS genes, as well as tRNA^Pyl genes were cloned into a pACYX system plasmid (see FIG. 6). These two expression vectors were transformed to E. coli BL21 (DE3) to statically culture overnight on LB agar medium including kanamycin and ampicillin. […] Incubation was conducted overnight to induce expression before E. coli cells were harvested to detect expressed GST using SDS-PAGE. […] (SEQ ID NO: 17) (m/z=1327.72 Da) (see FIG. 10).
The same plasmid pTK2-1 as Example 1 was used for expressing PylRS mutant with double amino acid substitutions of Y306A and Y384F and tRNA^Pyl in E. coli cells. Incorporation of a lysine derivative into GST having amber codon at 25th from its N-terminus using this plasmid was performed according to the same method as Example 1. Moreover, specific incorporation of AzZLys [purchased from Shinsei Chemical Company Ltd. (Osaka)] into the amber site in GST using the same plasmid was also performed according to the same method as Example 1. Subsequently, crude extract obtained from E. coli cells in which the GST amber gene was expressed was separated with SDS-PAGE and stained. […] Furthermore, purification of GST was performed with the same method as Example 1.

Test [3] has as its system GRB2 amber gene, HEK c-18 cell. The source says: (§1) For expressing PylRS (Y306A, Y384F) mutant and tRNA^P1 in HEK c-18 cell, the system disclosed in the above-mentioned Non-Patent Document 7 was used. Likewise, the mutant gene into which the amber codon was incorporated at the cording region of lac Z gene and GRB2 gene, and the expression system thereof, as disclosed in the above-mentioned Non-Patent Document 7, were used.

Another test concerns GST. The conditions noted are these: FITC-PP3; ca. 37 degrees Celsius for 1 hour (not at ca. 4 degrees Celsius overnight). The method, then: A conjugate of fluorophore and triarylphosphine, and the purified full length GST were linked by Staudinger-Bertozzi reaction. As a conjugate, the conjugate with FITC (hereinafter referred to as FITC-PP3) (purchased from Shinsei Chemical Company Ltd.) was used. […] Linkage reaction was performed under two types of reactive conditions, i.e., at ca. 37 degrees Celsius for 1 hour (lhr) and at ca. 4 degrees Celsius overnight (O/N). Subsequently, these GST were separated by SDS-PAGE to detect fluorescence with UV light. […] As to the Staudinger-Bertozzi reaction, see the above-mentioned Non-Patent Documents 5, 6, etc.

Test [4] concerns lacZ amber gene, HEK c-18 cell.
Text: as §1
First, in the animal cells, optimal concentration of AzLys for site-specific incorporation of AzLys into the protein was determined. In media containing 0, 0.01, 0.025, 0.05, 0.1, 0.25 and 0.5 mM of AzZLys, LacZ protein was expressed from the lacZ amber gene to determine the level of expression (relative value) of LacZ with coloring reaction by LacZ. […] In FIG. 17, WT represents the level of expression (relative value) of wild-type (WT) lacZ without any amber codon in the coding region.

Chain of M. mazei PylRS (wild-type) (Q8PWY1 whole entry E444G, looked up): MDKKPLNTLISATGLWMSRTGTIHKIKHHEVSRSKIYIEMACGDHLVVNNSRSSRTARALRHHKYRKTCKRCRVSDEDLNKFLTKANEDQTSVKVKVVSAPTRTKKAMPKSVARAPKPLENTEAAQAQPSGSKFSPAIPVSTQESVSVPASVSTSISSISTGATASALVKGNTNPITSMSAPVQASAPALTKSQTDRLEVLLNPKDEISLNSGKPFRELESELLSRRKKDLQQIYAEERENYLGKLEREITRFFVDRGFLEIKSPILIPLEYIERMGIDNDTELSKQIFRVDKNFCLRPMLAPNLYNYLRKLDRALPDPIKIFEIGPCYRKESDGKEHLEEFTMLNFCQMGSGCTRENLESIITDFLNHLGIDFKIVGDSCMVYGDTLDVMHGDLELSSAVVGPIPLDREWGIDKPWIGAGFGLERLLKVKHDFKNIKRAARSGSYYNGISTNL

On to `CC(=O)NCCCC[C@H](N)C(=O)O` [Ac-Lys, N^ε-acetyl-L-lysine], for which, in test [1], the “activation of amino acid / esterification of tRNA^Pyl by wild-type PylRS” value was “esterified”.
For `C=CCOC(=O)N[C@@H](CCCCN)C(=O)O` [Aloc-Lys, allyloxycarbonyl-lysine], in test [2], the “expression of 28-kDa GST protein” value is “expressed”. Besides, the “activation of amino acid / esterification of tRNA^Pyl by wild-type PylRS” value in test [1] is reported as “activated at a concentration of 1 mM, as efficiently as pyrrolysine”.
Turning to `[N-]=[N+]=Nc1ccc(C[C@H](N)C(=O)O)cc1` [AzF, para-azide-phenylalanine], the “Grb2 modified with fluorescence” value in test [3] (AzFRS system, AzFRS also modified with fluorescence concurrently) is reported as “modified with fluorescence”.
Regarding `[N-]=[N+]=Nc1ccccc1COC(=O)NCCCC[C@H](N)C(=O)O` [AzZLys, N^ε-Ortho-Azide-Benzyloxycarbonyl-Lysine], the “expression of the full length GST” value in test [2] (PylRS mutant Y306A and Y384F and tRNA^Pyl, 1 mM AzZLys) is listed as “detected merely in the case of the presence of 1 mM AzZLys”. Also, the “fluorescence-modified GST” value in the test with GST is on record as “detected merely in the case of the reactive condition at ca. 37 degrees Celsius for 1 hour”. Also, the “suppression efficiency (LacZ expression relative to wild-type lacZ)” value in test [4] (PylRS (Y306A, Y384F) and tRNA^Pyl, 0.05 mM AzZLys) is recorded as “approximately 30 % of WT”. In test [4] (tested 0, 0.01, 0.025, 0.05, 0.1, 0.25 and 0.5 mM), the “concentration at which most efficiently incorporated into the amber site of lacZ” value worked out at 0.05 mM. Besides, the “Grb2 protein labeled with fluorescence” value in test [3] (PylRS (Y306A, Y384F), tRNA^Pyl, FITC-PP3) was “detected merely in the case of aaRS (+), Grb2 (Am), tRNA (+) and a.a. (+)”.
With `CC(C)(C)OC(=O)N[C@@H](CCCCN)C(=O)O` [Boc-Lys, tert-butyloxycarbonyl-lysine], in test [2], the “expression of 28-kDa GST protein” value is “expressed” and the “incorporation into a protein with wild-type PylRS” value is on record as “could not efficiently be incorporated”. In test [1], the “activation of amino acid / esterification of tRNA^Pyl by wild-type PylRS” value was “activated at a concentration of 1 mM, as efficiently as pyrrolysine”.
Turning to `CNc1ccccc1C(=O)NCCCC[C@H](N)C(=O)O` [Nma-Lys, N^ε-(N-methyl-anthraniloyl)-L-lysine], the “activation of amino acid / esterification of tRNA^Pyl by wild-type PylRS” value in test [1] is given as “esterified”.
As to `N[C@@H](CCCCNC(=O)OCc1ccccc1)C(=O)O` [Z-Lys, N^ε-benzyloxycarbonyl-L-lysine], the “production of full length GST protein” value in test [2] (double mutant PylRS (Y384F/Y306A) and tRNA^Pyl, 5 mM Z-Lys) was “produced”. For the same compound, the “incorporation into a protein with wild-type PylRS” value in test [2] is “cannot be incorporated into a protein”. Further, the “activation of amino acid / esterification of tRNA^Pyl by wild-type PylRS” value in test [1] is on record as “merely weakly activated; also recorded: esterified”.
`C[C@@H]1CC=N[C@H]1C(=O)NCCCC[C@H](N)C(=O)O` [pyrrolysine, N^6-[(2R,3R)-3-methyl-3,4-dihydro-2H-pyrrole-2-ylcarbonyl]-L-lysine]: the “activation of amino acid / esterification of tRNA^Pyl by wild-type PylRS” value in test [1] is given as “activates”.
